Measurements: US8993756B2 (Merck Sharp & Dohme Corp., priority 2011, dated 2015)

Tests used:
[1] = target: JAK3 (Homo sapiens (Human), UniProt P52333); experiment: Jak Biochemical HTRF Assay (JAK3); settings: recombinant GST-tagged catalytic domain, [ATP] 2.9 μM
[2] = target: JAK2 (Homo sapiens (Human), UniProt O60674); experiment: Jak Biochemical HTRF Assay (JAK2); settings: recombinant GST-tagged catalytic domain, [ATP] 8.5 μM
Chain of JAK2 (O60674 849-1124): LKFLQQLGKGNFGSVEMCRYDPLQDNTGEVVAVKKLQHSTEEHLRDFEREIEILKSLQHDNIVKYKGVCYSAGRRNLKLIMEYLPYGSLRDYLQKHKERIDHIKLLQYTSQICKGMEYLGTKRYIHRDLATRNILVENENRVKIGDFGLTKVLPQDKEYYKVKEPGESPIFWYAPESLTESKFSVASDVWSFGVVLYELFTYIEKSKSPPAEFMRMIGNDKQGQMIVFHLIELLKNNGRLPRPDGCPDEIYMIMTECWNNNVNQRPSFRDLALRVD

Chain of JAK3 (P52333 822-1111): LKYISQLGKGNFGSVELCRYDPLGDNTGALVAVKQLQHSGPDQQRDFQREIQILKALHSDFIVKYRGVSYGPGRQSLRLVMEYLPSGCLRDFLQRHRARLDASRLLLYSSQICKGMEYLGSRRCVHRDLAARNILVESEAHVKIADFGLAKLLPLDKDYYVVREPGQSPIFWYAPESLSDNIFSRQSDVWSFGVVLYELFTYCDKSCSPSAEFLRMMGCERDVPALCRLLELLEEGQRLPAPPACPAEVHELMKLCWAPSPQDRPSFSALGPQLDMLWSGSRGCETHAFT

IC50 ([1]; given as range class) [nM]	IC50 ([2]; given as range class) [nM]	IC50 [1] [nM]	IC50 [2] [nM]	SMILES
10 to 500	10 to 500	–	–	CCOC(=O)c1c[nH]c2ncnc(-c3cccc(C#N)c3)c12 [Example 1-6, ethyl 4-(3-cyanophenyl)-7H-pyrrolo[2,3-d]pyrimidine-5-carboxylate]
10 to 500	> 500	–	–	CCOC(=O)c1c[nH]c2ncnc(-c3csc4ccccc34)c12 [Example 1-71, ethyl 4-(1-benzothiophen-3-yl)-7H-pyrrolo[2,3-d]pyrimidine-5-carboxylate]
10 to 500	> 500	–	–	CCOC(=O)c1c[nH]c2ncnc(C3=CCCOC3)c12 [Example 1-88, ethyl 4-(5,6-dihydro-2H-pyran-3-yl)-7H-pyrrolo[2,3-d]pyrimidine-5-carboxylate]
–	–	4	> 1500	C=C(C)C(=O)Nc1cccc(-c2ncnc3[nH]cc(C(=O)OCC)c23)c1F [Example 4-2, Ethyl 4-{2-fluoro-3-[(2-methylacryloyl)amino]phenyl}-7H-pyrrolo[2,3-d]pyrimidine-5-carboxylate]
10 to 500	10 to 500	–	–	CCOC(=O)c1c[nH]c2ncnc(-c3ccc4sc(C)nc4c3)c12 [Example 1-25, ethyl 4-(2-methyl-1,3-benzothiazol-5-yl)-7H-pyrrolo[2,3-d]pyrimidine-5-carboxylate]
10 to 500	> 500	–	–	c1ccc(Oc2ccccc2-c2c[nH]c3ncnc(-c4ccccc4)c23)cc1 [Example 32-6, 5-(2-phenoxyphenyl)-4-phenyl-7H-pyrrolo[2,3-d]pyrimidine]
–	–	2.3	53	CCOC(=O)c1c[nH]c2ncnc(-c3ccc(N)cc3)c12 [Example 1-80, ethyl 4-(4-aminophenyl)-7H-pyrrolo[2,3-d]pyrimidine-5-carboxylate]
–	–	9.2	109	CCOC(=O)c1c[nH]c2ncnc(-c3cccc(Nc4nc(Cl)ns4)c3)c12 [Example 6-1, Ethyl 4-{3-[(3-chloro-1,2,4-thiadiazol-5-yl)amino]phenyl}-7H-pyrrolo[2,3-d]pyrimidine-5-carboxylate]
10 to 500	> 500	–	–	CCOC(=O)c1c[nH]c2ncnc(-c3ccc(N4CCN(C)CC4)nc3)c12 [Example 1-87, ethyl 4-[6-(4-methylpiperazin-1-yl)pyridin-3-yl]-7H-pyrrolo[2,3-d]pyrimidine-5-carboxylate]
–	–	9	153	CCCOC(=O)c1c[nH]c2ncnc(-c3ccc4cn(C)nc4c3)c12 [Example 2-1, Propyl 4-(2-methyl-2H-indazol-6-yl)-7H-pyrrolo[2,3-d]pyrimidine-5-carboxylate]
< 10	–	–	> 1500	C=C(CNC(C)=O)C(=O)Nc1cccc(-c2ncnc3[nH]cc(C(=O)OCC)c23)c1 [Example 13-3, ethyl 4-(3-(2-(acetamidomethyl)acrylamido)phenyl)-7H-pyrrolo[2,3-d]pyrimidine-5-carboxylate]
–	–	4	61	CCOC(=O)c1c[nH]c2ncnc(-c3cc4ccccc4o3)c12 [Example 1-54, ethyl 4-(1-benzofuran-2-yl)-7H-pyrrolo[2,3-d]pyrimidine-5-carboxylate]
10 to 500	> 500	–	–	CCOC(=O)c1c[nH]c2ncnc(-c3ccc(C(N)=O)cc3)c12 [Example 1-7, ethyl 4-(4-carbamoylphenyl)-7H-pyrrolo[2,3-d]pyrimidine-5-carboxylate]
10 to 500	> 500	–	–	CCOC(=O)c1c[nH]c2ncnc(-c3cccc4c3CNC4=O)c12 [Example 1-73, ethyl 4-(1-oxo-2,3-dihydro-1H-isoindol-4-yl)-7H-pyrrolo[2,3-d]pyrimidine-5-carboxylate]
–	–	0.068	> 1500	C=C(C)C(=O)Nc1cc(C#N)cc(-c2ncnc3[nH]cc(C(=O)OCC)c23)c1 [Example 4-24, ethyl 4-{3-cyano-5-[(2-methylacryloyl)amino]phenyl}-7H-pyrrolo[2,3-d]pyrimidine-5-carboxylate]
10 to 500	> 500	–	–	CCOC(=O)c1c[nH]c2ncnc(-c3cccnc3)c12 [Example 1-28, ethyl 4-pyridin-3-yl-7H-pyrrolo[2,3-d]pyrimidine-5-carboxylate]
10 to 500	> 500	–	–	CCOC(=O)c1c[nH]c2ncnc(-c3ccc4c(c3)C(=O)NC4)c12 [Example 1-75, ethyl 4-(3-oxo-2,3-dihydro-1H-isoindol-5-yl)-7H-pyrrolo[2,3-d]pyrimidine-5-carboxylate]
–	–	0.34	> 1500	C=C(C)C(=O)n1ccc2ccc(-c3ncnc4[nH]cc(C(=O)OCC)c34)cc21 [Example 4-23, ethyl 4-[1-(2-methylacryloyl)-1H-indol-6-yl]-7H-pyrrolo[2,3-d]pyrimidine-5-carboxylate]
–	–	0.02	> 1500	C=C(CO)C(=O)Nc1cccc(-c2ncnc3[nH]cc(C(=O)OCC)c23)c1 [Example 15-2, Ethyl-4-(3-{[2-(hydroxymethyl)acryloyl]amino}phenyl)-7H-pyrrolo[2,3-d]pyrimidine-5-carboxylate]
–	–	0.59	> 1500	C=C(C)C(=O)Nc1cccc(-c2ncnc3[nH]cc(-c4cccc(F)c4)c23)c1 [Example 20-2, N-{3-[5-(3-fluorophenyl)-7H-pyrrolo[2,3-d]pyrimidin-4-yl]phenyl}-2-methylprop-2-enamide]
–	–	5.3	> 1500	CCOC(=O)c1c[nH]c2ncnc(-c3cccc(NC(=O)/C=C/C(C)=O)c3)c12 [Example 5-14, ethyl 4-(3-{[(2E)-4-oxopent-2-enoyl]amino}phenyl)-7H-pyrrolo[2,3-d]pyrimidine-5-carboxylate]
–	–	0.15	> 1500	C=C(C)C(=O)Nc1cc(-c2ncnc3[nH]cc(C(=O)OCC)c23)ccc1C [Example 4-10]
–	–	2.3	> 1500	C=C(C)C(=O)N1CCc2ccc(-c3ncnc4[nH]cc(C(=O)OCC)c34)cc21 [Example 4-21, ethyl 4-[1-(2-methylacryloyl)-2,3-dihydro-1H-indol-6-yl]-7H-pyrrolo[2,3-d]pyrimidine-5-carboxylate]
–	–	1.5	35	CCOC(=O)c1c[nH]c2ncnc(-c3ccc4[nH]ccc4c3)c12 [Example 1-53, ethyl 4-(1H-indol-5-yl)-7H-pyrrolo[2,3-d]pyrimidine-5-carboxylate]
–	–	7.6	143	CCOC(=O)c1c[nH]c2ncnc(-c3cccc(C)c3)c12 [Example 1-46, ethyl 4-(3-methylphenyl)-7H-pyrrolo[2,3-d]pyrimidine-5-carboxylate]
–	–	10.3	> 1500	C=C(C)C(=O)Nc1cccc(-c2ncnc3[nH]cc(-c4cnc(C)s4)c23)c1 [Example 21-6, N-(3-(5-(2-methylthiazol-5-yl)-7H-pyrrolo[2,3-d]pyrimidin-4-yl)phenyl)methacrylamide]
–	–	3.3	90	CCOC(=O)c1c[nH]c2ncnc(-c3ccc(N(C)C)cc3)c12 [Example 1-47, ethyl 4-[4-(dimethylamino)phenyl]-7H-pyrrolo[2,3-d]pyrimidine-5-carboxylate]
–	–	6.5	98	CCOC(=O)c1c[nH]c2ncnc(-c3ccc4[nH]ncc4c3)c12 [Example 1-69, ethyl 4-(1H-indazol-5-yl)-7H-pyrrolo[2,3-d]pyrimidine-5-carboxylate]
